According to US20010049097A1 (priority 1999, published 2001):

Legend:
[1] = biological target: Y639F T7RNAP (Escherichia phage T7, UniProt P00573, Y639F); details: 42 bp template
Description: A 42 base-pair synthetic template carrying a consensus T7 promoter was tested for its effect on Y639F T7RNAP activity by measuring the synthesis of 25 base runoff transcripts in reaction mixtures containing 10 mM MgCl2, 40 mM Tris pH 8.0, 1 mM EDTA, 5 mM DTT, 0.5 mM MnCl2 and either 3 dNTP+rGTP or 4 rNTP reactions (FIG. 2A). […] The polymerase and T7 promoter were included at concentrations of about 10^−7 M. Reaction products were subjected to electrophoresis on denaturing gels containing 20% acrylamide, 2% bis-acrylamide, 6 M urea, 1×TBE.

[2] = biological target: T1, mutant T7 Y639F polymerase (Escherichia phage T7, UniProt P00573, Y639F); format: biochemical, T7 bacteriophage; details: for concentration found to increase rate of Y639RNAP-catalyzed transcript extension: more than one rNTP replaced by a non-canonical nucleoside triphosphate; for concentration in excess of which generally inhibitory of activity: reaction with 4 rNTPs and plasmid templates; for effect on nucleotide incorporation: reactions containing 4 rNTPs and no non-canonical nucleotides
T1 construct: made in house; host or cells: E. coli BL21 (protease-deficient strain), plasmid pDPT7
T1 sequence (P00573 whole entry Y639F): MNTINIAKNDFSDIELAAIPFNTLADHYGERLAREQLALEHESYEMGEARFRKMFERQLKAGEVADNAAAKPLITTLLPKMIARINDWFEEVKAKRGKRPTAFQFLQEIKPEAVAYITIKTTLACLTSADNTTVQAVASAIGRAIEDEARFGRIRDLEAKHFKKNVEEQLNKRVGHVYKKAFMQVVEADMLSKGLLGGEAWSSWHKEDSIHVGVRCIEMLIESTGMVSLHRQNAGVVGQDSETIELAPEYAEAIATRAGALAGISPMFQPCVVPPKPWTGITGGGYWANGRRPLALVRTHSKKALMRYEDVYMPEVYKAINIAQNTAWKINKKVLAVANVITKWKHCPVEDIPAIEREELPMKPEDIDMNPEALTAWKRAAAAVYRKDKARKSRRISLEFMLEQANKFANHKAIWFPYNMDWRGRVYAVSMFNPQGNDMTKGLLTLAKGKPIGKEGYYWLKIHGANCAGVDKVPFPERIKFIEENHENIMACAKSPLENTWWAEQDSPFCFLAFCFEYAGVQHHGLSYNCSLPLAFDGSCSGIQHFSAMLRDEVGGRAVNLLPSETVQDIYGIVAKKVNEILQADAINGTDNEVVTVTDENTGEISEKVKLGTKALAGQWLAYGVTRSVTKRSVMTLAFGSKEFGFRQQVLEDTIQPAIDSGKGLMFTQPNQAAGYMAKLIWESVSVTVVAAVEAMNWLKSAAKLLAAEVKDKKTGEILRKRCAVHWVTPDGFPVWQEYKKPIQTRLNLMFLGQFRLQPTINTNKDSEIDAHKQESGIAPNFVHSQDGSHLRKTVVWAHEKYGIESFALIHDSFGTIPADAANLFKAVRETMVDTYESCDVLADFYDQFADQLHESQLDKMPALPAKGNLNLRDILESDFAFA
Description: In general, transcription reaction mixtures comprised about 40 mM Tris-HCl or 40 mM Tris-Acetate pH 8.0, 5 mM DTT, 5-15 mM MgCl2, 0.1 mCi/ml of alpha-^32P GTP, and various combinations of rNTPs and dNTPs at initial concentrations of 0.5 mM and 1.0 mM, respectively. The reaction mixtures included supercoiled or PvuI-linearized pT75 DNA (10^−8 M) as the template and mutant T7 Y639F polymerase (10^−7 M). Reactions were typically conducted in 50 microliter reaction volumes and incubated at 37° C. Aliquots were removed after 5, 10, and 20 minutes of incubation and the reactions were quenched by adding a solution containing 95% formamide, 20 mM EDTA, 0.01% xylene cyanol. The reaction products were resolved by electrophoresis on denaturing gels containing 6% acrylamide, 0.6% bis-acrylamide, 6 M urea, 1×TBE. The gel was analyzed using a Molecular Dynamics Phosphorimager to determine the rates of incorporation of radioactive GTP into specific transcripts.
To evaluate the effect of A-form stabilizing compounds on polyamines on transcript extension by a mutant T7 RNAP, the activity of the RNAP was evaluated using standard transcription conditions (15 mM MgCl2, 40 mM Tris-HCl pH 8.0, 1 mM EDTA, and 5 mM DTT), or standard transcription reaction conditions plus varying concentrations of ethanol, methanol, trifuoro acteic acid, cobalt hexamine, spermine, or spermidine.
In addition to evaluating A-form stabilizing compounds, we examined the effects of varying the concentration of Mg^2+ and Mn^2+, substituting acetate for chloride as the main reaction counteranion, adding 0.1% tween-20, and adding pyrophosphatase.
With reference to FIG. 1A, reactions in lanes labeled ‘M’ were carried out with wild type polymerase, 4 rNTPs, and either Pvu I- or Hind III-restricted pT75 to generate RNA markers ˜579 or ˜59 bases in length, respectively. Values below each gel lane give the relative rates of synthesis of runoff or long (>˜600 base) transcripts on linearized or supercoiled templates, respectively, normalized to a value of 100 for the 4 rNTP reactions. FIG. 1A compares the relative activities of Y639F in typical polymerase reaction conditions (15 mM MgCl2, 40 mM Tris-HCl pH 8.0, 1 mM EDTA, and 5 mM DTT) and in a modified reaction mixture (40 mM Tris-acetate pH 8.0, 5 mM DTT, 1 mM EDTA, 10 mM Mg-acetate, 0.5 mM MnCl2, 8 mM spermidine, and 1 U/μl pyrophosphatase) in reactions having various combinations of rNTPs and dNTPs with supercoiled or linearized templates.
With reference to FIG. 1B, transcripts were synthesized using Hind III-cut pT75 as the template with 2′-NH2- or 2′-F NTPs as indicated replacing the corresponding rNTPs in the reaction. Reactions were conducted with 8 mM or 0 mM spermidine, as indicated. FIG. 1B compares the activity of Y639F in the presence or absence of spermidine, in reactions with 4 rNTPs or different combinations of rNTPs and 2′-F- or 2′-NH2-NTPs.

Chain of Y639F T7RNAP (P00573 whole entry Y639F): as above

NCCCNCCCCNCCCN [spermine]
runoff synthesis relative to 8 mM spermidine ([1]; 1.6 mM spermine, 3 dNTPs): 2 fold | concentrations shown to be stimulatory ([1]; reactions with 3 dNTPs): up to 13 mM | concentration found to increase rate of Y639RNAP-catalyzed transcript extension [2]: at least 1.5 mM | concentration inhibiting transcription ([2]; plasmid pT75 template, all combinations of rNTPs and dNTPs): ≥ 4 mM | concentration in excess of which generally inhibitory of activity [2]: > 1 mM | effect on nucleotide incorporation [2]: minimal effects at low concentrations and were inhibitory at high concentrations | concentration optimum for stimulation of activity ([2]; reactions with non-canonical substrates (3 replaced), plasmid templates): 1 to 2 mM

CO [methanol]
effect on nucleotide incorporation [2]: inhibited

N.N.N.N.N.N.[Cl-].[Cl-].[Cl-].[Co+3] [cobalt, cobalt hexamine]
effect on nucleotide incorporation [2]: inhibited

CCO [ethanol]
effect on nucleotide incorporation [2]: inhibited

CO[C@@H]1[C@H](O)[C@@H](COP(=O)(O)OP(=O)(O)OP(=O)(O)O)O[C@H]1n1cnc2c(=O)[nH]c(N)nc21 [2′-O-Me-GTP]
synthesis of 59 base runoff transcripts, lower than in reactions with 4 rNTPs ([2]; Hind-III linearized pT75, modified buffer, single rNTP replaced): eliminated synthesis of runoff transcripts altogether

NCCCCNCCCN [spermidine]
concentration found to increase rate of Y639RNAP-catalyzed transcript extension [2]: at least 8 mM | concentration in excess of which generally inhibitory of activity [2]: > 10 mM | effect on nucleotide incorporation [2]: minimal effects at low concentrations and were inhibitory at high concentrations

O=C(O)C(F)(F)F [trifluoroacetic acid]
effect on nucleotide incorporation [2]: inhibited
